{"source": "patent US7629317B2", "about": "“Control of growth and repair of gastro-intestinal tissues by gastrokines and inhibitors” (The University of Chicago, priority 2001, dated 2009)", "key": {"[1]": {"system": "IEC-18 cells", "test": "Wound restitution (migration) of scrape-wounded IEC-18 cell monolayers", "assay_type": "cell-based, rat", "experimental": "Confluent monolayer cultures were mechanically wounded by scraping with a razor blade, and the distance that cells migrated from the wound edge was measured using a microscope eyepiece reticle.\nIn a separate set of experiments DSS reduced restitution of scrape-wounded cultures of non-transformed diploid rat intestinal epithelial IEC-18 cells (P<0.001) (FIG. 29, right panel). When DSS was removed by aspirating the medium and the cultures allowed to recover for 24 hr after scrape wounding, cell migration during the next 24 hr was 40% greater in the presence of AMP peptide compared to vehicle (P<0.001)."}, "[2]": {"system": "occludin, ZO-1, ZO-2, claudin-5, E-cadherin, JAM", "test": "Accumulation of tight and adherens junction proteins in C2 cells (immunoblot of insoluble fraction, confocal microscopy)", "assay_type": "cell-based, human", "experimental": "To find out how the peptide exerts its cytoprotective effect, C2 cell monolayers were treated with AMP peptide, and oxidant injury was induced with monochloramine 18 hours later. Changes in the levels of specific tight junction (TJ) proteins were checked. Cells were lysed, and proteins of the insoluble/particulate fraction were studied by immunoblotting. […] This observation represents the first evidence that AMP peptide enhances accumulation of specific TJ proteins in colonic epithelial cells. […] To carry out this experiment, C2 cells were exposed to AMP peptide for different periods of time, the NP-40-insoluble fraction was obtained, Western blots were prepared, and the amount of each immunoreactive protein was quantified. A 65% increase in immunoreactivity of each protein compared to control was detected for occludin after 2 hr, and for ZO-1 at 8 hr. Hsc73, which is constitutively expressed in these cells, was not altered by exposure to AMP peptide for up to 18 hr.\nConfluent monolayers of C2 cells were treated with AMP peptide or vehicle for 8 hr. Cells were then collected, proteins in the NP-40-insoluble fraction were separated by SDS-PAGE, immunoblots were prepared, and the relative amounts of immunoreactive proteins were compared by densitometric analysis. […] These changes appear relatively specific for occludin, ZO-1, ZO-2, claudin-5, E-cadherin, and JAM because they were not observed for several other proteins localized in the TJ (claudin-1, claudin-2), adherens junction (β-catenin), plasma membrane (Na-K-2Cl cotransporter, α or β subunit of Na-K-ATPase), or cytosol (Rho A, hsc73).\nTo better understand the mechanism(s) by which AMP peptide enhances accumulation of TJ-associated proteins, experiments were performed to determine whether the peptide exerted its effect at the apical or basolateral surface of C2 cells. Monolayers of C2 cells were grown on Transwell filters, AMP peptide (8:g/ml) was added to the apical or basolateral compartment of the Transwell, and cells were harvested 8 hr later. The NP-40-insoluble fraction was obtained, its proteins separated, and immunoblots were prepared."}, "[3]": {"system": "mice with DSS-induced colitis", "test": "DSS-induced colitis in mice (blood in stool, body weight)", "assay_type": "in vivo, C57BL/6 male mice", "details": "P<0.01", "experimental": "FIG. 27, Left Panel: Effect of AMP peptide on appearance of blood in the stool of mice with DSS-induced colitis. Mice (n=50) were given 3% dextran sulfate sodium, and stools were assayed daily for the presence of blood. Appearance of bloody diarrhea was delayed in animals treated with AMP peptide (10 mg/kg body weight/day) compared to those given the vehicle (P<0.01). Right panel: Effect of treatment with AMP peptide on body weight of mice with DSS colitis. After animals (n=20) received 3% DSS to drink for 4 days, they were switched to water (day 0 on graph).\nTo evaluate the therapeutic efficacy of AMP peptide in vivo, colitis of mild to moderate severity was induced in C57BL/6 male mice by giving the animals DSS (3%) dissolved in tap water to drink ad libitum. Evidence of colitis (blood in the stool assayed by hemoccult strips) was found as early as day 1 (FIG. 27, left panel), and in all animals given injections of the vehicle subcutaneously (s.c.) by day 4. AMP peptide was administered s.c. one day before animals were given DSS, and once per day thereafter. Bloody stool was detected in fewer animals given AMP peptide than the vehicle (P<0.01; n=50).\nTo look for a systemic effect of treatment with AMP peptide during the development of DSS colitis, body weight was measured. During the first 4 days of DSS administration, body weight changed little in peptide- or vehicle-treated mice. Then DSS was discontinued, the animals were given water to drink (day 0; FIG. 27, right panel), and measurements of weight were continued. […] Because DSS treatment appeared to injure barrier function in monolayer cultures of C2 cells, assessed as a decrease in TER (FIG. 22) and reduced occludin in the detergent-insoluble fraction (FIG. 36), a question was whether DSS might adversely affect the content of this TJ protein in vivo. […] Occludin levels in the NP-40-insoluble fraction were assessed by immunoblotting. […]"}, "[4]": {"system": "occludin", "test": "Occludin in mouse colonic mucosa in vivo (immunoblot of NP-40-insoluble fraction)", "details": "listed as AMP peptide", "experimental": "To look for a systemic effect of treatment with AMP peptide during the development of DSS colitis, body weight was measured. During the first 4 days of DSS administration, body weight changed little in peptide- or vehicle-treated mice. Then DSS was discontinued, the animals were given water to drink (day 0; FIG. 27, right panel), and measurements of weight were continued. […] To better understand how AMP peptide could exert these salutary effects on hematochezia and weight loss in DSS colitis, studies were performed to determine if observations in cultures of C2 cells were also relevant in vivo. Because DSS treatment appeared to injure barrier function in monolayer cultures of C2 cells, assessed as a decrease in TER (FIG. 22) and reduced occludin in the detergent-insoluble fraction (FIG. 36), a question was whether DSS might adversely affect the content of this TJ protein in vivo. Mice (n=10) were given DSS (3%) or water to drink. Four days later animals were killed, the contents of the colon lumen including blood were washed out, and the mucosa was inspected. The colonic epithelial surface of mice given DSS appeared largely intact with no obvious ulcerations or denuded areas. Surface cells of visibly intact mucosa were then collected by scraping with a glass slide. Occludin levels in the NP-40-insoluble fraction were assessed by immunoblotting. […]"}, "[5]": {"system": "mice with Pseudomonas aeruginosa-induced gut-derived sepsis", "test": "Pseudomonas aeruginosa-induced gut-derived sepsis in mice", "assay_type": "in vivo, female Balb/c mice", "details": "15 mg/kg i.p for 4 days, s.c. for 1 day; all vehicle animals dead; listed as AMP peptide", "experimental": "To determine if AMP peptide could play a cytoprotective role in GDS, a study was carried out in C2 cell monolayers that were exposed to the PA-I lectin. […] Next the effect of AMP peptide was studied in the mouse model of P. aeruginosa-induced-GDS (Laughlin et al., 2000) using female Balb/c mice subjected to 30% hepatectomy, injection of a solution of living P. aeruginosa into the cecum, and food deprivation postoperatively. All 8 of the mice survived surgery."}, "[6]": {"system": "Enterococcus faecalis", "test": "Growth of other bacteria and fungi", "assay_type": "cell-based"}, "[7]": {"system": "Streptococcus pneumoniae", "test": "Growth of other bacteria and fungi", "assay_type": "cell-based"}, "[8]": {"system": "Candida albicans", "test": "Growth of other bacteria and fungi", "assay_type": "cell-based"}}, "note": "“Also recorded” adds a separate entry of the source.", "data": [{"sequence": "LDALVKEKKLQGKGPGGPPPK [97–117, peptide 77-97 of the mature protein, same as 97-117 of the human precursor]", "values": [{"measurement": "cell migration greater than vehicle after DSS removal", "setting": "[1]; 24 hr recovery after scrape wounding, next 24 hr, P<0.001", "value": 40, "unit": "%"}, {"measurement": "migration from the wound edge compared with control", "setting": "[1]; each time point, P<0.005", "value": "migrated further"}, {"measurement": "changes in claudin-1, claudin-2, β-catenin, Na-K-2Cl cotransporter, Na-K-ATPase subunits, Rho A, hsc73", "setting": "[2]", "value": "not observed"}, {"measurement": "increase in accumulation of junctional adhesion molecule (JAM)", "setting": "[2]; 48 and 72 hr vs 0 hr", "value": "~50", "unit": "%"}, {"measurement": "increased accumulation of E-cadherin", "setting": "[2]; 8 hr", "value": 2, "unit": "fold"}, {"measurement": "increased accumulation of occludin, ZO-1, ZO-2 and claudin-5", "setting": "[2]; 8 hr, densitometric analysis", "value": "3- to 6 fold"}, {"measurement": "accumulation of occludin and ZO-1 (specificity)", "setting": "[2]; 8 hr, peptides 8 μg/ml, EGF 50 ng/ml", "value": "enhanced accumulation"}, {"measurement": "ZO-1 and occludin levels in the insoluble fraction versus vehicle", "setting": "[2]; after oxidant injury", "value": "two-fold"}, {"measurement": "accumulation of occludin and claudin-5, basolateral exposure", "setting": "[2]; basolateral compartment of Transwell, 8 hr", "value": "increased accumulation"}, {"measurement": "Hsc73 expression", "setting": "[2]; exposure up to 18 hr", "value": "not altered"}, {"measurement": "increase in occludin immunoreactivity compared to control", "setting": "[2]; non-injured cells, after 2 hr", "value": 65, "unit": "%"}, {"measurement": "increase in ZO-1 immunoreactivity compared to control", "setting": "[2]; non-injured cells, at 8 hr", "value": 65, "unit": "%"}, {"measurement": "occludin immunoreactivity versus vehicle-treated control cells", "setting": "[2]; peptide 8 μg/ml, 18 hr, listed as AMP peptide", "value": "double"}, {"measurement": "appearance of blood in the stool (bloody diarrhea) versus vehicle", "setting": "[3]; 3% DSS, 10 mg/kg body weight/day s.c., listed as AMP peptide, 10 mg/kg/day", "value": "fewer animals; also recorded: delayed"}, {"measurement": "body weight loss versus vehicle", "setting": "[3]; 3 days after switching from 3% DSS to water, 10 mg/kg s.c. daily", "value": "lost less weight"}, {"measurement": "recovery of body weight", "setting": "[3]; day 7 after stopping DSS, listed as AMP peptide", "value": "complete recovery; also recorded: completely recovered"}, {"measurement": "amount of β-catenin in colonic mucosal epithelial cells", "setting": "[4]", "value": "did not alter; also recorded: does not alter"}, {"measurement": "survival one day after P. aeruginosa injection into the cecum", "setting": "[5]", "value": "alive and well"}, {"measurement": "growth of Enterococcus faecalis", "setting": "[6]", "value": "did not alter the growth"}, {"measurement": "growth of Streptococcus pneumoniae", "setting": "[7]", "value": "did not alter the growth"}, {"measurement": "growth of Candida albicans", "setting": "[8]", "value": "did not alter the growth"}]}]}
